pIC50: −log10 of the molar value. Read-outs that look alike come from different tables or passages of the source.
Tests used:
[1] = target: T1, CYP17 (H295R cells) (Homo sapiens, UniProt P05093); test: CYP17 cellular assay (IC50), testosterone in H295R cells (Biological Example 7); format: cell-based; conditions: H295R cells
T1 construct: endogenous in cells; host or cells: H295R cells
T1 sequence (P05093 1-508): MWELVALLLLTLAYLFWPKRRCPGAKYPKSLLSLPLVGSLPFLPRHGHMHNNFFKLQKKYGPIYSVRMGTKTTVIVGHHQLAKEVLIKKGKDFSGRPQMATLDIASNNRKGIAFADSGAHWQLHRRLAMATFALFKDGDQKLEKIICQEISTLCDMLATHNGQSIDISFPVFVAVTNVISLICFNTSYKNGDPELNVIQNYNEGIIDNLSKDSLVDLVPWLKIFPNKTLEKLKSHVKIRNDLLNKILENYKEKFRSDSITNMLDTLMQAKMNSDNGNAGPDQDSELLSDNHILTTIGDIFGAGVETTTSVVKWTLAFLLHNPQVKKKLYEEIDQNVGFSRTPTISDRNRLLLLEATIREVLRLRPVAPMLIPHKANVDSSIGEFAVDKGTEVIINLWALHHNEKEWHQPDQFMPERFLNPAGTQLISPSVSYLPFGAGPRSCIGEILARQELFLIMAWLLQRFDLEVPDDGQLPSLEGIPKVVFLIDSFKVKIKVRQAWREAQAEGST
Experimental: The assays were performed in 96-well plates. Typically H295R cells were seeded at 4.5×10^4 cells/well in 100 μL Growth Medium containing DMEM/F-12 (Gibco/Invitrogen; 11330-032), 2.5% Nu-Serum (BD Bioscience; 355100) and ITS (BD Bioscience; 354352), and cultured at 37° C., 5% CO2 for 24 hr. The next day, media were carefully removed and cells were washed twice with 200 μL 1×HBSS++. Test compounds were then added to the cells at 100, 10, 1, 0.1 nM final concentrations in 125 μL volume per well in serum-free media containing DMEM/F-12 and ITS+ Premix (BD Bioscience; 354352) with 0.1% methanol. Serum-free media with 0.1% methanol without test compound was used as control. Cells were incubated with compounds at 37° C. for additional 24 hours, and the cultured media from each compound treated well was harvested for measurement of testosterone concentration by ELISA according to manufacturer's instruction (Assay Design). Testosterone concentration of each sample was plotted vs. the concentration of the test compounds.

[2] = Human liver microsome stability assay (Biological Example 8b); conditions: liver microsomes, pH 7.4
Experimental: The reaction was started with addition of excess NADPH (5 mg/mL, 15 μL in 0.1 M potassium phosphate buffer, 1.0 mM EDTA, pH 7.4), the total volume is 45 μL (compound final concentration was 1 μM). […] 50 μL of the supernatant was transferred from each well into a 96-well sample plate containing 50 μL of ultra-pure water (Millipore) for LC-MS/MS analysis.

[3] = target: T2, CYP17 (human testicular microsome) (Homo sapiens, UniProt P05093); test: CYP17 enzymatic assay (% inhibition at 1 nM) (Biological Example 12); format: biochemical; conditions: compound at 1 nM
T2 construct: using microsomal fraction from human testis (Celsis Cat #S00110) as the enzyme source; tissue Celsis S00110; host or cells: human testis microsomal fraction
T2 sequence (P05093 1-508): T1 sequence (P05093 1-508)

[4] = target: T2, CYP17 (human testicular microsome); test: CYP17 enzymatic assay (IC50) (Biological Example 4); format: biochemical; conditions: human testicular microsome
Experimental: The assays were performed in 96-well plates. Typical assays were carried out in total 100 μL volume that included test compounds at designated concentrations, 1× reaction buffer, 0.5 mM NADPH, 1 μM 17α-hydroxypregnenolone, and 2.5 μL of diluted human testicular microsome (Celsis. Cat #S00110). Reaction without test compound served as positive control. Reactions were allowed to incubate at 37° C. for 90 minutes with gentle shaking. The reaction was stopped by directly applying the enzymatic reaction mixture to ELISA plate for evaluation of DHEA concentration according to manufacturer's protocol (IBL America). A standard curve (OD450 vs. DHEA concentration) was generated using purified DHEA.

[5] = target: T2, CYP17 (human testicular microsome); test: CYP17 enzymatic assay (% inhibition at 10 nM), version 1 (Biological Example 5); format: biochemical; conditions: 10 nM compound, DHEA by ELISA, read-out: Biological Example No. 5: CYP17 percent inhibition at 10 nM (version 1)
Experimental: The assays were performed in 96-well plates. Typical assays were carried out in total 100 μL volume that included test compounds at 10 nM concentration, 1× reaction buffer, 0.5 mM NADPH, 1 μM 17α-hydroxypregnenolone, and 2.5 μL of diluted human testicular microsome (Celsis. Cat #S00110). Reaction without test compound served as positive control. Reactions were allowed to incubate at 37° C. for 90 minutes with gentle shaking. The reaction was stopped by directly applying the enzymatic reaction mixture to ELISA plate for evaluation of DHEA concentration according to manufacturer's protocol (IBL America). A standard curve (OD450 vs. DHEA concentration) was generated using purified DHEA. […] Percent inhibition (inhibition %) of the compound was calculated using normalized DHEA concentration based on following formula: 100-([DHEA] of compound/[DHEA] of positive control *100).

[6] = testosterone, read-out: Biological Example No. 7: CYP17 cellular assay IC50
[7] = read-out: Biological Example No. 12: CYP17 enzymatic assay % inhibition at 1 nM
[8] = read-out: Biological Example No. 4: CYP17 enzymatic assay IC50
[9] = testosterone, read-out: CYP17 cellular assay IC50 (Biological Example No. 7)
[10] = read-out: CYP17 enzymatic assay % inhibition at 1 nM (Biological Example No. 12)

| Compound | pIC50 [1, 6] | half-life at 1 μM [2] [min] | inhibition at 0.001 µM [3, 7] [%] | pIC50 [4, 8] | pIC50 ([1]; testosterone by ELISA, 24 hours, read-out: Biological Example No. 7: CYP17 cellular assay IC50) | inhibition at 0.01 µM [5] [%] | pIC50 ([4]; DHEA by ELISA, read-out: Biological Example No. 4: CYP17 enzymatic assay IC50) | pIC50 [1, 9] | inhibition at 0.001 µM [3, 10] [%] | pIC50 ([4]; read-out: CYP17 enzymatic assay IC50 (Biological Example No. 4)) |
| --- | --- | --- | --- | --- | --- | --- | --- | --- | --- | --- |
| C[C@]12CC[C@H]3[C@@H](CC4CC45C[C@@H](O)CC[C@]35C)[C@@H]1CC=C2c1cccnc1 (single isomer, unassigned) [Compound 317] | > 7.82 | 1 to 50 | > 50 | > 7.96 |  |  |  |  |  |  |
| COc1cncc(C2=CC=C3[C@@H]4CC=C5C[C@@H](O)CC[C@]5(C)[C@H]4CC[C@]23C)c1 [Compound 81, (3S,10R,13S)-17-(5-methoxypyridin-3-yl)-10,13-dimethyl-2,3,4,7,8,9,10,11,12,13-decahydro-1H-cyclopenta[a]phenanthren-3-ol] |  | > 50 |  |  | > 7.82 | > 80 | > 7.96 |  |  |  |
| Cc1ccncc1C1=CC=C2[C@@H]3CC=C4C[C@@H](O)CC[C@]4(C)[C@H]3CC[C@]12C [Compound 190, (3S,10R,13S)-10,13-dimethyl-17-(4-methylpyridin-3-yl)-2,3,4,7,8,9,10,11,12,13-decahydro-1H-cyclopenta[a]phenanthren-3-ol] |  | 1 to 50 |  |  |  |  |  | 7.00 to 7.82 | > 50 |  |
| CC(C)C(=O)N[C@@H]1CC[C@@]2(C)C(CCC3C2CC[C@]2(C)C(c4cccnc4)=CCC32)C1 (stereo partly drawn) [Compound 216, N-((3R,10S,13S)-10,13-dimethyl-17-(pyridin-3-yl)-2,3,4,5,6,7,8,9,10,11,12,13,14,15-tetradecahydro-1H-cyclopenta[a]phenanthren-3-yl)isobutyramide] |  | 1 to 50 |  |  |  |  |  | > 7.82 | > 50 |  |
| CC(=O)N[C@@H]1CC[C@@]2(C)C(=CCC3C2CC[C@]2(C)C(c4cccnc4)=CCC32)C1 (stereo partly drawn) [Compound 223, N-((3R,10R,13S)-10,13-dimethyl-17-(pyridin-3-yl)-2,3,4,7,8,9,10,11,12,13,14,15-dodecahydro-1H-cyclopenta[a]phenanthren-3-yl)acetamide] |  | 1 to 50 |  |  |  |  |  | > 7.82 | > 50 | > 7.96 |
| CC(=O)N[C@@H]1CC[C@@]2(C)C(=CCC3C4=CC=C(c5cccnc5)[C@@]4(C)CCC32)C1 (stereo partly drawn) [Compound 243, N-((3R,10R,13S)-10,13-dimethyl-17-(pyridin-3-yl)-2,3,4,7,8,9,10,11,12,13-decahydro-1H-cyclopenta[a]phenanthren-3-yl)acetamide] |  | 1 to 50 |  |  |  |  |  | > 7.82 | > 50 |  |
| C[C@]1(O)CC[C@@]2(C)C(CCC3C2CC[C@]2(C)C(c4cncc(F)c4)=CCC32)C1 (stereo partly drawn) [Compound 264, (3S,10S,13S)-17-(5-fluoropyridin-3-yl)-3,10,13-trimethyl-2,3,4,5,6,7,8,9,10,11,12,13,14,15-tetradecahydro-1H-cyclopenta[a]phenanthren-3-ol] | > 7.82 | 1 to 50 |  | > 7.96 |  |  |  |  |  |  |
| C[C@]12CC[C@H]3[C@@H](CC=C4C[C@@H](O)CC[C@@]43C)C1=CC=C2c1cncc(F)c1 [Compound 271, (3S,10R,13S)-17-(5-fluoropyridin-3-yl)-10,13-dimethyl-2,3,4,7,8,9,10,11,12,13-decahydro-1H-cyclopenta[a]phenanthren-3-ol] | > 7.82 | 1 to 50 | > 50 | > 7.96 |  |  |  |  |  |  |
| C[C@]12CC[C@H](O)CC1=CCC1C2CC[C@]2(C)C(c3cncc(C(F)F)c3)=CCC12 (stereo partly drawn) [Compound 279, (3S,10R,13S)-17-(5-(difluoromethyl)pyridin-3-yl)-10,13-dimethyl-2,3,4,7,8,9,10,11,12,13,14,15-dodecahydro-1H-cyclopenta[a]phenanthren-3-ol] | > 7.82 | > 50 | > 50 | > 7.96 |  |  |  |  |  |  |
| C[C@]12CCC3C(CC(F)C4(O)C[C@@H](O)CC[C@]34C)C1CC=C2c1cncc(F)c1 (stereo partly drawn) [Compound 321, (3S,10R,13S)-6-fluoro-17-(5-fluoropyridin-3-yl)-10,13-dimethyl-2,3,4,5,6,7,8,9,10,11,12,13,14,15-tetradecahydro-1H-cyclopenta[a]phenanthrene-3,5-diol] | > 7.82 | 1 to 50 | > 50 | > 7.96 |  |  |  |  |  |  |
| C[C@]12CCC(=O)C=C1C1CC1[C@@H]1[C@@H]2CC[C@]2(C)C(c3cncc(F)c3)=CC[C@@H]12 (stereo partly drawn) [Compound 330, (4aR,6aS)-7-(5-fluoropyridin-3-yl)-4a,6a-dimethyl-4,4a,4b,5,6,6a,9,9a,9b,9c,10,10a-dodecahydrocyclopenta[a]cyclopropa[l]phenanthren-2(3H)-one] | > 7.82 | 1 to 50 | > 50 | > 7.96 |  |  |  |  |  |  |
| C[C@]12CCNC(=O)C=C1CCC1C2CC[C@]2(C)C(c3cncc(C(F)F)c3)=CCC12 (stereo partly drawn) [Compound 386, (5aR,7aS)-8-(5-(difluoromethyl)pyridin-3-yl)-5a,7a-dimethyl-3,4,5,5a,5b,6,7,7a,10,10a,11,12-dodecahydrocyclopenta[5,6]naphtho[1,2-d]azepin-2(10bH)-one] | > 7.82 | 1 to 50 | > 50 | > 7.96 |  |  |  |  |  |  |
| C[C@]12CC(O)CC1CCC1C2CC[C@]2(C)C(c3cncc(F)c3)=CCC12 (stereo partly drawn) [Compound 398, (3aS,5aS)-6-(5-fluoropyridin-3-yl)-3a,5a-dimethyl-1,2,3,3a,3b,4,5,5a,8,8a,8b,9,10,10a-tetradecahydrodicyclopenta[a,f]naphthalen-2-ol] | > 7.82 | > 50 | 10 to 50 | > 7.96 |  |  |  |  |  |  |
| C[C@]12CC(O)CC1CCC1C2CC[C@]2(C)C(c3cccnc3)=CCC12 (stereo partly drawn) [Compound 399, (3aS,5aS)-3a,5a-dimethyl-6-(pyridin-3-yl)-1,2,3,3a,3b,4,5,5a,8,8a,8b,9,10,10a-tetradecahydrodicyclopenta[a,f]naphthalen-2-ol] | > 7.82 | 1 to 50 | > 50 | > 7.96 |  |  |  |  |  |  |
| C[C@]12CCC(F)CC1=CC[C@@H]1[C@@H]2CC[C@]2(C)C(c3cncc(F)c3)=CC[C@@H]12 (stereo partly drawn) [Compound 401, 3-fluoro-5-((10R,13S)-3-fluoro-10,13-dimethyl-2,3,4,7,8,9,10,11,12,13,14,15-dodecahydro-1H-cyclopenta[a]phenanthren-17-yl)pyridine] | > 7.82 | > 50 |  | > 7.96 |  |  |  |  |  |  |
| C[C@]12CCC(=O)C=C1C=CC1C2CC[C@]2(C)C(c3cncc(F)c3)=CCC12 (stereo partly drawn) [Compound 409, (10R,13S)-17-(5-fluoropyridin-3-yl)-10,13-dimethyl-8,9,10,11,12,13,14,15-octahydro-1H-cyclopenta[a]phenanthren-3(2H)-one] | > 7.82 | 1 to 50 | > 50 | > 7.96 |  |  |  |  |  |  |

— US20130252930A1 (BIOMARIN PHARMACEUTICAL INC., priority 2010, published 2013)
